Experiments:
[1] = Steady-state fluorescence anisotropy of DPH-doped liposomes, POPC/Chol 75:25; type: physicochemical; details: compound 0.2 mM, 5 min incubation at RT
[2] = Steady-state fluorescence anisotropy of DPH-doped liposomes, POPC/POPS/Chol 55:20:25; type: physicochemical; details: compound 0.2 mM, 5 min incubation at RT
[3] = Steady-state fluorescence anisotropy of DPH-doped liposomes, POPC/POPS 80:20; type: physicochemical; details: compound 0.2 mM, 5 min incubation at RT
[4] = Steady-state fluorescence anisotropy of DPH-doped liposomes, POPC; type: physicochemical; details: 5 min incubation at RT
Text: (§1) The technique used in the present study was steady-state fluorescence anisotropy spectroscopy (fluorescence anisotropy or anisotropy in the following text). The technique was utilised to detect organisational changes within the lipid bilayer using a fluorescent 1,6-diphenyl-1,3,5-hexatriene (DPH) probe. DPH is advantageous in the present application due to its high quantum yield and its ability to indicate subtle changes in the lipid acyl chain organisation. For general reviews on the technique, see Shinitzky & Barenholz[18] and Lentz[19]. The rod-like hydrophobic probe is rotating within the bilayer structure by Brownian motion and it is located between the hydrophobic acyl chains of the lipids. When the probe-containing liposomes are illuminated with UV-light at a fixed wavelength and a fixed level of polarized light, the probe is first excited and subsequently emits light that is partly depolarized, due to the molecular rotations of the probe. This depolarization can be measured as a numerical value of anisotropy (r), as shown by Eq. 1.1 r=I||−I⊥/IT where I|| and I⊥ are the intensities of emitted light parallel and perpendicular to the plane of excitation, respectively. IT is the total intensity of emitted light.
(§2) A reference anisotropy value for each pure liposome was determined daily. This was performed in order to normalise the liposome batch-to-batch and liposome-aging-dependent variation of the anisotropy values. The anisotropy was measured ten times and the mean ± standard deviation was calculated. Subsequently, the pure liposomes and the compounds under investigation were mixed and incubated at room temperature for 5 min, before measuring the anisotropy.
(§3) The lipids and the DPH probe were dissolved in chloroform as stock solutions and the stocks were mixed to give the target molar proportions for each liposome composition (Table 2). After mixing the chloroform lipid stocks, the lipid mixture was dried as a thin film on test tube walls by evaporating the chloroform using a flow of air, until no solvent was visible. The dried thin film of lipids was kept under vacuum for at least 12 h in a desiccator, in order to remove any traces of solvent. Ultra-pure water was added to reach the target lipid concentration of 4.0 mM. […] The aqueous mixture of DPH, lipids and water were incubated under agitation for 60 min at 65 °C and 75 °C to form the non-cholesterol-containing and cholesterol-containing multilamellar liposomes, respectively. Subsequently, the 4.0 mM liposome stock dispersions were extruded through 100 nm pore-size polycarbonate filters 19 times using an Avanti mini-extruder (Avanti Polar Lipids, Alabaster, AL, USA) in order to obtain unilamellar liposomes.
(§4) The fluorescence anisotropy values were measured using a Horiba Jobin Yvon (Northampton, UK) FluoroMax-4 spectrofluorometer, in L-format. The emission and the excitation […] were always set to the same value (8–10 nm) so that the photon counts/second at the detector were as recommended by the manufacturer (from 500 000 to 2 000 000 counts/second). The excitation and emission wavelengths were 360 nm and 450 nm, respectively. The measurements were performed at 21 ± 1 °C. Physiological temperature was not used, since the interactions between the living organism (Vibrio Fischeri) also takes place at a non-physiological temperature of 15 °C. The maximum 7 °C difference (15 °C vs. 22 °C) was considered acceptable. A reference value for the pure liposomes was measured daily. […] Both concentrations were selected by trial and error.

[5] = Steady-state fluorescence anisotropy of DPH-doped liposomes, POPC/POPS/Chol 55:20:25; type: physicochemical; details: compound 50 mM, 5 min incubation at RT
Text: as §1, §2, §3
as §4, with “daily. In order to study the interaction between the compounds and the liposomes, the pure liposomes were mixed with the compounds so that the final concentration of the lipids was 20 µM and that of the studied compounds was 50 mM.” for “daily.”

[6] = Steady-state fluorescence anisotropy of DPH-doped liposomes, POPC/Chol 75:25; type: physicochemical; details: compound 50 mM, 5 min incubation at RT
Text: as §1, §2, §3
as §4, with “daily. In order to study the interaction between the compounds and the liposomes, the pure liposomes were mixed with the compounds so that the final concentration of the lipids was 20 µM and that of the studied compounds was 50 mM.” for “daily.”

[7] = Steady-state fluorescence anisotropy of DPH-doped liposomes, POPC/POPS 80:20; type: physicochemical; details: compound 50 mM, 5 min incubation at RT
Text: as §1, §2, §3
as §4, with “daily. In order to study the interaction between the compounds and the liposomes, the pure liposomes were mixed with the compounds so that the final concentration of the lipids was 20 µM and that of the studied compounds was 50 mM.” for “daily.”

[8] = Steady-state fluorescence anisotropy, stated over the liposome compositions; type: physicochemical; details: four liposome compositions; compound 50 mM
Text: as §1
as §2, with “anisotropy. Similar to the reference measurements, the fluorescence anisotropy value after incubation with the ILs was recorded 10 times and the mean ± standard deviation was calculated.” for “anisotropy.”
In this equation r0 is the fundamental anisotropy in the absence of rotational diffusion of the probe, i.e. the maximum anisotropy value achievable using the specific excitation wavelength. At 360 nm r0 = 0.362 for DPH[26]. C(r) relates the molecular shape and the location of the transition dipoles of the rotating probe into one parameter. For spherical probes C(r) = k/v, where k is the Boltzmann constant and v is the effective volume of the probe. Therefore, C(r) would be constant for spherical molecules, but for other shapes, such as the rod-like DPH, the value is dependent on the experimental value of r. In contrast, as experimentally determined by Shinitzky and Barenholtz, the factor C(r)· T· τ = 240 mPa · s is relatively constant at 0–40 °C in membranes doped with DPH probe. T and τ are the temperature during the experiment and lifetime of the excited state, respectively. By substituting r0 = 0.362 and C(r)· T· τ = 240 mPa · s and by further rearranging of the Eqs. 2 and 3 is obtained.3 η=240mPas⋅r/0.362−r
The equation gives the approximate apparent microviscosity (±15%) based on the recorded anisotropy values. The benefit of determining this is the hyperbolic growth of the apparent microviscosity relatively to anisotropy. […]
In order to compare the anisotropy values with the toxicity values in greater detail, the relative change in anisotropy Δr (%) was calculated as given by Eq. 44 Δr=rliposome+toxicant−rpureliposome/rpureliposome where rpure liposome is the daily anisotropy value measured for each pure liposome and r liposome+toxicant the anisotropy value measured after mixing the pure liposome with the compound of interest. […]

[9] = 333 mM; cited from earlier work

Compound | Relative change in anisotropy, Δr [1] [%] | Relative change in anisotropy, Δr [2] [%] | Relative change in anisotropy, Δr [3] [%] | Relative change in anisotropy, Δr ([4]; compound 0.2 mM) [%] | Relative change in anisotropy, Δr [5] [%] | Relative change in anisotropy, Δr [6] [%] | Relative change in anisotropy, Δr ([4]; compound 50 mM) [%] | Relative change in anisotropy, Δr [7] [%] | Δr, range depending on the liposome composition [8] | changes in fluorescence polarisation [9] [%]
CC(=O)[O-].CCCCCCCC[P+](C)(CCCCCCCC)CCCCCCCC [[P8881][OAc], Methyltrioctylphosphonium acetate] | -41 | -47 | -36 | -19 | – | – | – | – | – | –
C1CCC[N+]2(CC1)CCCCC2.CC(=O)[O-] [[5.6][OAc], 6-Azoniaspiro[5.6]dodecane acetate] | – | – | – | – | -27 | -21 | -19 | -22 | – | –
CS(=O)(=O)[O-].[Na+] [NaOMs, Sodium mesylate, reference compound] | – | – | – | – | 13 | 6 | 17 | 11 | 6–17% | –
CCN(CC)CC.CS(=O)(=O)O [[TEAH][OMs], Triethylammonium mesylate] | – | – | – | – | -4 | 2 | 7 | -5 | −5% to +7 | –
CC(=O)[O-].[Na+] [NaOAc, Sodium acetate, reference compound] | – | – | – | – | 12 | 12 | 11 | 13 | 11–13% | –
C1CC[N+]2(CC1)CCCC2.CC(=O)[O-] [[4.5][OAc], 5-Azoniaspiro[4.5]decane acetate] | – | – | – | – | -6 | -1 | 6 | -5 | −6% to +6 | –
CN(C)C(=N)N(C)C.CS(=O)(=O)O [[TMGH][OMs], 1,1,3,3-Tetramethylguanidinium mesylate] | – | – | – | – | 5 | 3 | 11 | 6 | 3–11% | –
5-Methyl-1,5,7-triazabicyclo[4.3.0]non-6-enium & 7-Methyl-1,5,7-triazabicyclo[4.3.0]non-5-enium mesylate [[MTBNH][OMs]] | – | – | – | – | -36 | -27 | -20 | -26 | – | –
C1CCC2=NCCCN2CC1.CS(=O)(=O)O [[DBUH][OMs], 1,8-Diazabicyclo[5.4.0]undec-7-enium mesylate] | – | – | – | – | -39 | -31 | -24 | -33 | – | –
CCO [ethanol] | – | – | – | – | – | – | – | – | – | < 10
C1CC[N+]2(CC1)CCCCC2.CC(=O)[O-] [[5.5][OAc], 6-Azoniaspiro[5.5]undecane acetate] | – | – | – | – | -25 | -18 | -16 | -18 | – | –
